Assay results reported in patent US8969356B2, “Compounds useful as inhibitors of ATR kinase” (Vertex Pharmaceuticals Incorporated, priority 2010, dated 2015).

Target: T1, ATR kinase (Homo sapiens, UniProt Q13535)
T1 construct: Assays were carried out at 25° C. in the presence of 5 nM full-length ATR
Assay: ATR Inhibition Assay (radioactive-phosphate incorporation)
Format: biochemical
Conditions: not given
Method: Compounds were screened for their ability to inhibit ATR kinase using a radioactive-phosphate incorporation assay. Assays were carried out in a mixture of 50 mM Tris/HCl (pH 7.5), 10 mM MgCl2 and 1 mM DTT. Final substrate concentrations were 10 μM [γ-33P]ATP (3mCi 33P ATP/mmol ATP, Perkin Elmer) and 800 μM target peptide ([…] (SEQ. ID NO: 1)).
Assays were carried out at 25° C. in the presence of 5 nM full-length ATR. An assay stock buffer solution was prepared containing all of the reagents listed above, with the exception of ATP and the test compound of interest. 13.5 μL of the stock solution was placed in a 96 well plate followed by addition of 2 μL of DMSO stock containing serial dilutions of the test compound (typically starting from a final concentration of 15 μM with 3-fold serial dilutions) in duplicate (final DMSO concentration 7%). The plate was pre-incubated for 10 minutes at 25° C. and the reaction initiated by addition of 15 μL [γ-33P]ATP (final concentration 10 μM).
The reaction was stopped after […] by the addition of 30 μL 0.1M phosphoric acid containing 2 mM ATP. A multiscreen phosphocellulose filter 96-well plate (Millipore, Cat no. MAPHN0B50) was pretreated with 100 μL 0.2M phosphoric acid prior to the addition of 45 μL of the stopped assay mixture. The plate was washed with 5×200 μL 0.2M phosphoric acid. After drying, 100 μL Optiphase ‘SuperMix’ liquid scintillation cocktail (Perkin Elmer) was added to the well prior to scintillation counting (1450 Microbeta Liquid Scintillation Counter, Wallac).
After removing mean background values for all of the data points, Ki(app) data were calculated from non-linear regression analysis of the initial rate data using the Prism software package (GraphPad Prism version 3.0cx for Macintosh, GraphPad Software, San Diego Calif., USA).

T1 sequence (Q13535 whole entry): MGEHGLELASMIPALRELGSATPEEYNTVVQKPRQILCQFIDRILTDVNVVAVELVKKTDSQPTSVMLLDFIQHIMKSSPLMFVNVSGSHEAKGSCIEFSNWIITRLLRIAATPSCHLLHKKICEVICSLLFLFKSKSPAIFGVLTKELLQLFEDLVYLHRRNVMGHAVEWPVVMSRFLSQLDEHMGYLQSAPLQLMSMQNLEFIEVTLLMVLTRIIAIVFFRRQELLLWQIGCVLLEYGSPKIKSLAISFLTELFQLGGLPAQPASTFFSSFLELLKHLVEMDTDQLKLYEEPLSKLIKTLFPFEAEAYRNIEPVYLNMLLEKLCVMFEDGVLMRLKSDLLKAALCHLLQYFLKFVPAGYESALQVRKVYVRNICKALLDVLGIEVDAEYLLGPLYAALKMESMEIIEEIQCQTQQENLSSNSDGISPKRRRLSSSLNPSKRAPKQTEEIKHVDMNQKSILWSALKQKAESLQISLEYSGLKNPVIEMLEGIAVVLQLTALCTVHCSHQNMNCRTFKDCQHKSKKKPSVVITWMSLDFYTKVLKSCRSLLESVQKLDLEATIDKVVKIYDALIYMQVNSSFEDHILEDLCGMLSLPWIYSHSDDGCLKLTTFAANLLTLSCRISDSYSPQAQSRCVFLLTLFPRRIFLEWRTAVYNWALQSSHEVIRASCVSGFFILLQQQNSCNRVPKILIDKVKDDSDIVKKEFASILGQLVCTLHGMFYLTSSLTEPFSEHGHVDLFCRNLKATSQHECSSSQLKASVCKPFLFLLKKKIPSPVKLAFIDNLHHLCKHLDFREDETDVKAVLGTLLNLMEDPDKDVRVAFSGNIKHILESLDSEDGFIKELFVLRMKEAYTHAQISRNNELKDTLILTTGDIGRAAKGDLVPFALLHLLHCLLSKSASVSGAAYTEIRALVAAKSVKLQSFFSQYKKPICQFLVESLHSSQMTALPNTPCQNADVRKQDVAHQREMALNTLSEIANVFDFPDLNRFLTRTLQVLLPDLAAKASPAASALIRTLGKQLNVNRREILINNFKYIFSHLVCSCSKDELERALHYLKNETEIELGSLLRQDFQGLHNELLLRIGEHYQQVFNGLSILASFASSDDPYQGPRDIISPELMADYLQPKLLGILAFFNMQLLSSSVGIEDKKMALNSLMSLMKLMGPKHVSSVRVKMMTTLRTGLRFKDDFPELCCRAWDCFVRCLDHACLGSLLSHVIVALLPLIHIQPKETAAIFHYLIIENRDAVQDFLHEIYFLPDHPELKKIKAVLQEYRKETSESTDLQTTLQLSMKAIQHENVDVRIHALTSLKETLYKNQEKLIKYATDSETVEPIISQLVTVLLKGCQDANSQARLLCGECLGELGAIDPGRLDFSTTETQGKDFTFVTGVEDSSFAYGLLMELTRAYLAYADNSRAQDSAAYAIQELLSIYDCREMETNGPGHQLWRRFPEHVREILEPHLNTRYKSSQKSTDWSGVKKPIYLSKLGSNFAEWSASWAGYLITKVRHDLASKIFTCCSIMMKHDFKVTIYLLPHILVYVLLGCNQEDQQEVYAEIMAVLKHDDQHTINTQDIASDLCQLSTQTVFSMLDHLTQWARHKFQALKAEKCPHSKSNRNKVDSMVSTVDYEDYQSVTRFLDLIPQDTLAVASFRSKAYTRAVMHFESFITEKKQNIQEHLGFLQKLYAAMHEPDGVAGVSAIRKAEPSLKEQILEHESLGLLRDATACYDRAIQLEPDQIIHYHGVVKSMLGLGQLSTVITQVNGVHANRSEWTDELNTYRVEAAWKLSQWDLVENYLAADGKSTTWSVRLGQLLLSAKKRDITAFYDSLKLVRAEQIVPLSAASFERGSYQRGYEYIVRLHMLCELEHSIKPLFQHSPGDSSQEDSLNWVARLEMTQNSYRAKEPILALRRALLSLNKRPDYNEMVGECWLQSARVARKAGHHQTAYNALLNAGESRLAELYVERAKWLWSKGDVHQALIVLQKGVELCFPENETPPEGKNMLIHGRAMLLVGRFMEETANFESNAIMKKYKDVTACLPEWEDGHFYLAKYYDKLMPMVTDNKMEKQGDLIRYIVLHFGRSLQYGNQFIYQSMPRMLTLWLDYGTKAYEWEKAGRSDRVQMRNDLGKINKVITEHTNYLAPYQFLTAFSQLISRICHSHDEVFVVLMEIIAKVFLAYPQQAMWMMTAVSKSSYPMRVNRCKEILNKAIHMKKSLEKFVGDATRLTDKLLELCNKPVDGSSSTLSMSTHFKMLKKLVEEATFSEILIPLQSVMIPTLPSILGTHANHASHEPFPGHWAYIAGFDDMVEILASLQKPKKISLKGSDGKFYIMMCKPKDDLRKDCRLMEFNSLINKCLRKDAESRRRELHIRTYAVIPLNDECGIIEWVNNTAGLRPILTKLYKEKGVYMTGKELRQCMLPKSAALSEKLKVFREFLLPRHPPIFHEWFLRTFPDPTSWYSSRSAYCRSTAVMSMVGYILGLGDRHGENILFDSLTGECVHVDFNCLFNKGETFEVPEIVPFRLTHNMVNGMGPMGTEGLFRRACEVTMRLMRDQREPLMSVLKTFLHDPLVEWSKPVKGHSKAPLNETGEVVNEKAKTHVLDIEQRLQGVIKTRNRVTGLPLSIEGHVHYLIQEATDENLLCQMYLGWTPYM

CC(C)S(=O)(=O)c1ccc(-c2cnc(N)c(C#Cc3cccc(N)n3)n2)cc1 [Compound I-41, 3-((6-aminopyridin-2-yl)ethynyl)-5-(4-(isopropylsulfonyl)phenyl)pyrazin-2-amine] and CC(C)S(=O)(=O)c1ccc(-c2cnc(N)c(C#Cc3ccccc3N)n2)cc1 [Compound I-38, 3-((2-aminophenyl)ethynyl)-5-(4-(isopropylsulfonyl)phenyl)pyrazin-2-amine] cannot be ordered by Ki: no more than 0.1 µM for the first, 0.1 to 1 µM for the second.

CC(C)S(=O)(=O)c1ccc(-c2cnc(N)c(C#Cc3ccccc3Cl)n2)cc1 [Compound I-12, 3-[2-(2-Chlorophenyl)ethynyl]-5-(4-isopropylsulfonylphenyl)pyrazin-2-amine] and COc1ccccc1C#Cc1nc(-c2ccc(S(=O)(=O)C(C)C)cc2)cnc1N [Compound I-19, 5-(4-Isopropylsulfonylphenyl)-3-[2-(2-methoxyphenyl)ethynyl]pyrazin-2-amine] cannot be ordered by Ki: no more than 0.1 µM for the first, 0.1 to 1 µM for the second.

Nc1ncc(-c2ccc(S(=O)(=O)C3CCNCC3)cc2)nc1C#Cc1cccc(O)c1 [Compound I-17, 3-[2-[3-Amino-6-[4-(4-piperidylsulfonyl)phenyl]pyrazin-2-yl]ethynyl]phenol] and CC(C)S(=O)(=O)c1ccc(-c2cnc(N)c(C#Cc3cccc(C(N)=O)c3)n2)cc1 [Compound I-37, 3-[2-[3-Amino-6-(4-isopropylsulfonylphenyl)pyrazin-2-yl]ethynyl]benzamide] cannot be ordered by Ki: no more than 0.1 µM for the first, no more than 0.1 µM for the second.

Compared with CC(C)S(=O)(=O)c1ccc(-c2cnc(N)c(C#C[C@H](C)O)n2)cc1 [Compound I-29, (2S)-4-[3-Amino-6-(4-isopropylsulfonylphenyl)pyrazin-2-yl]but-3-yn-2-ol], CC(C)S(=O)(=O)c1ccc(-c2cnc(N)c(C#CC3CC3)n2)cc1 [Compound I-27, 3-(2-Cyclopropylethynyl)-5-(4-isopropylsulfonylphenyl)pyrazin-2-amine] is lower in Ki: 1 to 13 µM for the first, 0.1 to 1 µM for the second. The second binds more tightly here.

First: CC(C)S(=O)(=O)c1ccc(-c2cnc(N)c(C#Cc3ccc(C#N)cc3)n2)cc1 [Compound I-15, 4-[2-[3-Amino-6-(4-isopropylsulfonylphenyl)pyrazin-2-yl]ethynyl]benzonitrile]
Second: CC(C)S(=O)(=O)c1ccc(-c2cnc(N)c(C#Cc3ccc(F)cc3)n2)cc1 [Compound I-14, 3-[2-(4-Fluorophenyl)ethynyl]-5-(4-isopropylsulfonylphenyl)pyrazin-2-amine]
The Ki of the first is higher: 1 to 13 µM for the first, no more than 0.1 µM for the second.

CCC(=O)N1CC=C(c2cnc(N)c(C#Cc3cccc(O)c3)n2)CC1 [Compound I-30, 1-[4-[5-Amino-6-[2-(3-hydroxyphenyl)ethynyl]pyrazin-2-yl]-3,6-dihydro-2H-pyridin-1-yl]propan-1-one] and CC(C)n1cc(-c2cnc(N)c(C#Cc3cccc(O)c3)n2)ccc1=O [Compound I-16, 5-[5-Amino-6-[2-(3-hydroxyphenyl)ethynyl]pyrazin-2-yl]-1-isopropyl-pyridin-2-one] cannot be ordered by Ki: no more than 0.1 µM for the first, no more than 0.1 µM for the second.

N#Cc1ccccc1-c1cnc(N)c(C#Cc2cccc(O)c2)n1 [Compound I-18, 2-[5-Amino-6-[2-(3-hydroxyphenyl)ethynyl]pyrazin-2-yl]benzonitrile] and C[S+]([O-])c1ccccc1-c1cnc(N)c(C#Cc2cccc(O)c2)n1 (stereo not shown) [Compound I-23, 3-[2-[3-Amino-6-(2-methylsulfinylphenyl)pyrazin-2-yl]ethynyl]phenol] cannot be ordered by Ki: no more than 0.1 µM for the first, no more than 0.1 µM for the second.

CC(C)S(=O)(=O)c1ccc(-c2cnc(N)c(C#Cc3cccc(OCCN)c3)n2)cc1 [Compound I-25, 3-[2-[3-(2-Aminoethoxy)phenyl]ethynyl]-5-(4-isopropylsulfonylphenyl)pyrazin-2-amine] and CC(C)S(=O)(=O)c1ccc(-c2cnc(N)c(C#Cc3cccc(OCCCN)c3)n2)cc1 [Compound I-24, 3-[2-[3-(3-Aminopropoxy)phenyl]ethynyl]-5-(4-isopropylsulfonylphenyl)pyrazin-2-amine] cannot be ordered by Ki: no more than 0.1 µM for the first, no more than 0.1 µM for the second.

Cc1ccc(O)cc1C#Cc1nc(-c2ccc(S(=O)(=O)C(C)C)cc2)cnc1N [Compound I-47, 3-((3-amino-6-(4-(isopropylsulfonyl)phenyl)pyrazin-2-yl)ethynyl)-4-methylphenol] and CC(C)S(=O)(=O)c1ccc(-c2cnc(N)c(C#Cc3ccsc3)n2)cc1 [Compound I-31, 5-(4-Isopropylsulfonylphenyl)-3-[2-(3-thienyl)ethynyl]pyrazin-2-amine] cannot be ordered by Ki: no more than 0.1 µM for the first, 0.1 to 1 µM for the second.

Compared with CC(C)S(=O)(=O)c1ccc(-c2cnc(N)c(C#Cc3cccc4ccccc34)n2)cc1 [Compound I-2, 5-(4-Isopropylsulfonylphenyl)-3-[2-(1-naphthyl)ethynyl]pyrazin-2-amine], CC(C)S(=O)(=O)c1ccc(-c2cnc(N)c(C#CCc3ccccc3)n2)cc1 [Compound I-10, 5-(4-isopropylsulfonylphenyl)-3-(3-phenylprop-1-ynyl)pyrazin-2-amine] is higher in Ki: no more than 0.1 µM for the first, 1 to 13 µM for the second.

CC(C)S(=O)(=O)c1ccc(-c2cnc(N)c(C#Cc3cccc(NC(=O)CN)c3)n2)cc1 [Compound I-49, 2-amino-N-(3-((3-amino-6-(4-(isopropylsulfonyl)phenyl)pyrazin-2-yl)ethynyl)phenyl)acetamide] and CC(=O)Nc1cccc(C#Cc2nc(-c3ccc(S(=O)(=O)C(C)C)cc3)cnc2N)c1 [Compound I-6, N-[3-[2-[3-Amino-6-(4-isopropylsulfonylphenyl)pyrazin-2-yl]ethynyl]phenyl]acetamide] cannot be ordered by Ki: no more than 0.1 µM for the first, no more than 0.1 µM for the second.

CC(C)S(=O)(=O)c1ccc(-c2cnc(N)c(C#Cc3cccc(F)c3)n2)cc1 [Compound I-1, 3-[2-(3-Fluorophenyl)ethynyl]-5-(4-isopropylsulfonylphenyl)pyrazin-2-amine] and CC(C)S(=O)(=O)c1ccc(-c2cnc(N)c(C#Cc3cccc(Cl)c3)n2)cc1 [Compound I-9, 3-[2-(3-Chlorophenyl)ethynyl]-5-(4-isopropylsulfonylphenyl)pyrazin-2-amine] cannot be ordered by Ki: no more than 0.1 µM for the first, no more than 0.1 µM for the second.

CC(C)S(=O)(=O)c1ccc(-c2cnc(N)c(C#CC3CCCCC3)n2)cc1 [Compound I-8, 3-(2-Cyclohexylethynyl)-5-(4-isopropylsulfonylphenyl)pyrazin-2-amine] and CC(C)S(=O)(=O)c1ccc(-c2cnc(N)c(C#Cc3cncn3C)n2)cc1 [Compound I-39] cannot be ordered by Ki: 0.1 to 1 µM for the first, no more than 0.1 µM for the second.

CC(C)S(=O)(=O)c1ccc(-c2cnc(N)c(C#Cc3ccccc3N3CCNCC3)n2)cc1 [Compound I-43, 5-(4-(isopropylsulfonyl)phenyl)-3-((2-(piperazin-1-yl)phenyl)ethynyl)pyrazin-2-amine] and CC(C)S(=O)(=O)c1ccc(-c2cnc(N)c(C#Cc3cccc4[nH]ncc34)n2)cc1 [Compound I-44, 3-((1H-indazol-4-yl)ethynyl)-5-(4-(isopropylsulfonyl)phenyl)pyrazin-2-amine] cannot be ordered by Ki: no more than 0.1 µM for the first, no more than 0.1 µM for the second.

CC(C)S(=O)(=O)c1ccc(-c2cnc(N)c(C#Cc3ccc(C(O)CN)cc3)n2)cc1 (stereo not shown) [Compound I-42, 2-amino-1-(4-((3-amino-6-(4-(isopropylsulfonyl)phenyl)pyrazin-2-yl)ethynyl)phenyl)ethanol] and CC(C)S(=O)(=O)c1ccc(-c2cnc(N)c(C#Cc3ccncc3)n2)cc1 [Compound I-32, 5-(4-Isopropylsulfonylphenyl)-3-[2-(4-pyridyl)ethynyl]pyrazin-2-amine] cannot be ordered by Ki: no more than 0.1 µM for the first, no more than 0.1 µM for the second.

CC(C)S(=O)(=O)c1ccc(-c2cnc(N)c(C#Cc3ccc4[nH]ncc4c3)n2)cc1 [Compound I-45, 3-((1H-indazol-5-yl)ethynyl)-5-(4-(isopropylsulfonyl)phenyl)pyrazin-2-amine] and COc1cccc(C#Cc2nc(-c3ccc(S(=O)(=O)C(C)C)cc3)cnc2N)c1 [Compound I-3, 5-(4-Isopropylsulfonylphenyl)-3-[2-(3-methoxyphenyl)ethynyl]pyrazin-2-amine] cannot be ordered by Ki: no more than 0.1 µM for the first, no more than 0.1 µM for the second.

CNCc1cccc(C#Cc2nc(-c3ccc(S(=O)(=O)C(C)C)cc3)cnc2N)c1 [Compound I-28, 5-(4-Isopropylsulfonylphenyl)-3-[2-[3-(methylaminomethyl)phenyl]ethynyl]pyrazin-2-amine] and CC(C)S(=O)(=O)c1ccc(-c2cnc(N)c(C#Cc3cccc(OCCN(C)C)c3)n2)cc1 [Compound I-26, 3-[2-[3-(2-Dimethylaminoethyloxy)phenyl]ethynyl]-5-(4-isopropylsulfonylphenyl)pyrazin-2-amine] cannot be ordered by Ki: no more than 0.1 µM for the first, 0.1 to 1 µM for the second.

CC(C)S(=O)(=O)c1ccc(-c2cnc(N)c(C#Cc3cc(Cl)cc(CO)c3)n2)cc1 [Compound I-48, (3-((3-amino-6-(4-(isopropylsulfonyl)phenyl)pyrazin-2-yl)ethynyl)-5-chlorophenyl)methanol] and CC(C)S(=O)(=O)c1ccc(-c2cnc(N)c(C#Cc3cccnc3)n2)cc1 [Compound I-13, 5-(4-Isopropylsulfonylphenyl)-3-[2-(3-pyridyl)ethynyl]pyrazin-2-amine] cannot be ordered by Ki: no more than 0.1 µM for the first, no more than 0.1 µM for the second.

Same assay, conditions: at 15 uM

For CC(C)S(=O)(=O)c1ccc(-c2cnc(N)c(C#Cc3ccccc3CO)n2)cc1 [Compound I-46, (2-((3-amino-6-(4-(isopropylsulfonyl)phenyl)pyrazin-2-yl)ethynyl)phenyl)methanol], the inhibition at 15 µM was 30%.
